Measured values published in US12162861B2, “Dopamine D3 receptor selective antagonists/partial agonists; method of making; and use thereof” (THE UNITED STATES OF AMERICA, AS REPRESENTED BY THE …, priority 2016, dated 2024).
pKi: −log10 of the molar value.

How the values were obtained:
human D3R = target: T1, human D3R (Homo sapiens, UniProt P35462); test: Radioligand competition binding, [3H]N-methylspiperone, D3R; conditions: Table 1A; HEK 293 cells transfected with hD3R, [3H]N-methylspiperone; read-out: D3R K ± SEM
T1 construct: expressed in transfected cells; host or cells: HEK293
T1 sequence (P35462 whole entry): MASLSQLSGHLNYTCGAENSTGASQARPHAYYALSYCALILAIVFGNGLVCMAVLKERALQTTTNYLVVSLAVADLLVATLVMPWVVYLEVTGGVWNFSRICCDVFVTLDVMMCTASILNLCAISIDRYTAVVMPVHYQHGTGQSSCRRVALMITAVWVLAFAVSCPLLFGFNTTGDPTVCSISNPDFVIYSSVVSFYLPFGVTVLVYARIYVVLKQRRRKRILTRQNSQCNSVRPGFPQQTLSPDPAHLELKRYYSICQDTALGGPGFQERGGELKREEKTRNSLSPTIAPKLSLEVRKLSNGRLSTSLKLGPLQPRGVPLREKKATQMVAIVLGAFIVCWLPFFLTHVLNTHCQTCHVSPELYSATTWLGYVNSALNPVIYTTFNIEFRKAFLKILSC
Procedure: Binding at dopamine D2-like receptors was determined using previously described methods. […] Upon reaching 80-90% confluence, cells were harvested using pre-mixed Earle's Balanced Salt Solution (EBSS) with 5 μM EDTA (Life Technologies) and centrifuged at 3000 rpm for 10 min at 21° C. The supernatant was removed and the pellet was resuspended in 10 mL hypotonic lysis buffer (5 mM MgCl2·6H2O, 5 mM Tris, pH 7.4 at 4° C.) and centrifuged at 20,000 rpm for 30 min at 4° C. The pellet was then resuspended in fresh EBSS buffer made from 8.7 g/L Earle's Balanced Salts without phenol red (US Biological, Salem, MA), 2.2 g/L sodium bicarbonate, pH to 7.4. A Bradford protein assay (Bio-Rad, Hercules, CA) was used to determine the protein concentration and membranes were diluted to 500 μg/mL and stored in a −80° C. freezer for later use.
Radioligand competition binding experiments were conducted using thawed membranes. Test compounds were freshly dissolved in 30% DMSO and 70% H2O to a stock concentration of 100 μM. To assist the solubilization of free-base compounds, 10 μl of glacial acetic acid was added along with the DMSO. Each test compound was then diluted into 13 half-log serial dilutions using 30% DMSO vehicle; final test concentrations ranged from 10 μM to 10 pM. Previously frozen membranes were diluted in fresh EBSS to a 100 μg/mL (for hD2R or hD3R) or 200 μg/mL (hD4R) stock for binding. Radioligand competition experiments were conducted in glass tubes containing 300 μl fresh EBSS buffer with 0.2 mM sodium metabisulfite, 50 μl of diluted test compound, 100 μl of membranes (10 μg total protein for hD2R or hD3R, 20 μg total protein for hD4R), and 50 μl of [^3H]N-methylspiperone (0.4 nM final concentration; Perkin Elmer). Nonspecific binding was determined using 10 μM butaclamol (Sigma-Aldrich, St. Louis, MO) and total binding was determined with 30% DMSO vehicle. All compound dilutions were tested in triplicate and the reaction incubated for one hour at room temperature. The reaction was terminated by filtration through Whatman GF/B filters, presoaked for one hour in 0.5% polyethylenimine, using a Brandel R48 filtering manifold (Brandel Instruments, Gaithersburg, MD). The filters were washed 3 times with 3 mL of ice cold EBSS buffer and transferred to scintillation vials. […] IC50 values for each compound were determined from dose-response curves and Ki values were calculated using the Cheng-Prusoff equation; these analyses were performed using GraphPad Prism version 5.00 for Windows (GraphPad Software, San Diego, CA). Reported Ki values were determined from least three independent experiments.

Long-Evans rats = test: Oxycodone self-administration in rats; type: in vivo, rat; conditions: for oxycodone self-administration (oxycodone taking): FR1, 5-25 mg/kg i.p., FIG. 3A
Procedure: MATERIALS AND METHODS: Male Long-Evans rats (Charles-River, Raleigh, N.C.) were used. […] All the experimental procedures were consistent with the “Principles of Laboratory Animal Care” published by National Institutes of Health (NIH publication 86-23, 1996) and were approved by the NIDA Animal Care and Use Committee.
Surgery: Rats (300-350 g) used for oxycodone self-administration were first implanted with an intravenous catheter. They were anaesthetized with pentobarbital (30 mg/kg i.p.) supplemented with chloral hydrate (140 mg/kg, i.p.). A small incision was next made to the right of the midline of the neck and the external jugular vein was externalized and an i.v. catheter, made of microrenathane (Braintree Scientific Inc., Braintree, MA, USA) was inserted with its tip reaching right atrium. The catheter was secured to the vein with silk suture and the other end fed subcutaneously around the back of the neck to exit near the back of the skull. The end was slipped over a bent 24-gauge stainless steel cannula (Plastic One Inc., Roanoke, VA, USA) with a threaded head used to secure a dummy cannula and, during experimentation, an infusion line. The catheter and the guide cannula were then secured to the skull with four stainless steel screws threaded into the skull and dental cement and the wound was sutured.
After surgery, the catheters were flushed daily with a gentamicin-heparin-saline solution (30 IU/ml heparin; ICN Biochemicals, Cleveland, OH, USA) as precaution against catheter clogging and infection. The animals were allowed to recover for at least 5 days before the behavioral training started.
Self-administration apparatus and oxycodone self-administration training: Rats in 3 experimental tests were first trained to self-administer oxycodone. The self-administration apparatus and procedures have been described previously (Xi et al., 2004, 2005). […] This infusion time was also served as a timeout period during which the light-tone cue was kept activated and animal' responses on the active lever were recorded but had no scheduled consequence. […]

squirrel monkeys = test: Cue-induced reinstatement of drug seeking in squirrel monkeys; type: in vivo, squirrel monkey (Saimiri sciureus)
From the text: Cue-induced reinstatement: After the completion of priming-induced reinstatement testing, the monkeys were returned to baseline THC self-administration for 5-10 sessions. In subsequent extinction sessions, drug injections and all cues associated with drug injections were removed. This means that catheters were not connected to a pump and monkeys were not receiving infusions or visual cue presentations. After two or three days of extinction, we tested for cue-induced reinstatement of extinguished drug-seeking behavior after vehicle pretreatment (i.m.) by allowing delivery of a saline injection paired with the drug-associated cues. […] Each reinstatement test was a single session, which was preceded and followed by extinction session(s) with vehicle pretreatment (i.m.) 30 min before the sessions.
Δ^9-tetrahydrocannabinol (THC, NIDA Drug Supply Program, Bethesda, MD, USA) was dissolved in a vehicle containing 1% Tween 80, 1% ethanol, and saline to obtain stock solution (0.4 mg/ml) and further diluted with saline. In the reinstatement tests, THC was injected i.v. (1 ml/kg) immediately before the session.

- pKi (human D3R): 8.20
SMILES: CCc1cc(Cl)c(OC)c(N2CCN(CC(O)CCNC(=O)c3cc4ccccc4[nH]3)CC2)c1 (racemic) [Compound 29, N-(4-(4-(3-chloro-5-ethyl-2-methoxyphenyl)piperazin-1-yl)-3-hydroxybutyl)-1H-indole-2-carboxamide]
- oxycodone self-administration (oxycodone taking) (Long-Evans rats): attenuated self-administration at 15 and 25 mg/kg
- oxycodone self-administration (oxycodone taking) (Long-Evans rats; listed as (±)-29): attenuating effects
- acquisition of oxycodone self-administration, number of infusions (Long-Evans rats; pretreatment 5-15 mg/kg i.p., oxycodone 0.05 mg/kg/infusion, effect at 15 mg/kg): significantly lower number of infusions of oxycodone
- cue-induced reinstatement of drug seeking behavior (squirrel monkeys): attenuated cue-induced reinstatement of drug seeking behavior
